Test [1] has as its system S. cerevisiae yeast cells. As to the kind of experiment: Yeast growth in suspension with ATP and drug selection (turbidity). In kind it is cell-based, Saccharomyces cerevisiae. Conditions: 100 mM ATP, 48 hours. On the procedure:
Cell lines: Cell lines were the same as those described above in Example 2 and 3. YMR4 MDR1 is the phosphatase mutant yeast strain overexpressing AtPGP-1; YMR4 pVT101 contains vector alone; INVSC MDR1 is the wild-type yeast strain overexpressing AtPGP-1; and INVSC pVT101 contains vector alone.
Selection in drug: To create drug resistant yeast strains, all four cell lines were grown up in the presence of 500 ng/ml of cycloheximide, and transferred to other cycloheximide containing plates after a period of four to six days. This transfer of cell lines and subculturing continued such that the yeast cells grew in the presence of cycloheximide for a period of at least a month.
Cells cultured in media alone: To create cell lines that had not been preselected for their ability to grow in drug, yeast strains were grown on plates containing YNB (Bio101, Vista, Calif.) without uracil (-URA) to maintain the presence of the vector (which supplies URA) without any drugs added.
Growth of cells in suspension for ATP and drug selection experiments: Cells were transferred into 5 ml YNB-URA liquid media for turbidity measurements. All cell lines (both non-drug selected and drug-selected) were grown in media with the addition of either nothing, 500 ng/ml cycloheximide, 100 mM ATP, or 500 ng/ml cycloheximide and 100 mM ATP. Turbidity readings were taken after 48 hours.

Test [2] relates to Arabidopsis thaliana plants. Description: Arabidopsis germination selection assay of transgenic plants (Example 2). Conditions: cycloheximide 250 ng/ml. In kind it is in vivo. The source says: Expression of apyrase and AtPGP-1 in plants: The expression of apyrase in plants is as described above in Example 1. Similar methods were employed to express AtPGP-1 in Arabidopsis thaliana plants with the following modifications. The AtPGP-1 coding region was subcloned into a pBIN vector lacking the GUS gene as described in Sidler, et al., 1998, The Plant Cell 10:1623-1636. This plasmid was then transformed into A. tumefaciens as described above, which was used to infect root calli to produce transgenic plants expressing AtPGP-1.
Plant growth: Arabidopsis thaliana seeds were sown in a solid germination media containing MS salt, 2% sucrose, 0.8% agar, and vitamins (Valvekens, D. et al., […], Proc. Natl. Acad. Sci. USA 85:5536-5540. For selection assays, cycloheximide was spread on the media to achieve a final concentration of 250 ng/ml. Plant growth was measured by germination percentage after 6-30 days.

Test [3] concerns yeast mutant YMR4. Description: Yeast growth in suspension, salvage pathway experiments (adenosine, phosphate). In kind it is cell-based, Saccharomyces cerevisiae. The following applies: 72 hours; for effect of addition to the media on resistance to cycloheximide: YMR4 cells, 3 mM adenosine, potassium phosphate; for effect of addition on growth in drug: cells overexpressing AtPGP-1 grown in cycloheximide. The protocol: Growth of cell lines in suspension for salvage pathway experiments: All cell lines were grown in liquid media either containing drug (for the drug selected lines) or not containing drug (for the non-drug selected lines). When the cultures reached a turbidity of 1.00 as measured at a wavelength of 600 in a spectrophotometer (OD600=1.00), 10 μl of each culture was then removed and placed in either media with nothing added, 3 mM potassium phosphate; 3 mM adenosine; 9 mM potassium phosphate and 3 mM adenosine (for controls); potassium phosphate and cycloheximide; adenosine and cycloheximide; adenosine, cycloheximide, and potassium phosphate. Cell cultures were further grown for 72 hours, and their turbidity was determined by OD600 readings on a spectrophotometer.

For test [4], the system named is Saccharomyces cerevisiae INVSC1 and YMR4. Description: Yeast growth selection assay on plates and in liquid media (turbidity OD600). Type of test: cell-based. The following applies: cycloheximide 500 ng/ml. An excerpt: Expression of AtPGP-1 in yeast: The AtPGP-1 cDNA (Arabidopsis thaliana MDR gene, accession #X61370) was subcloned into pVT101 downstream of the ADH promoter to create the AtPGP-1/pVT101 construct. AtPGP-1/pVT101 and pVT101 were transformed into Saccharomyces cerevisiae INVSC1 (genotype: MATα, his3-Δ1, leu2, trp1-289, ura3-52) and YMR4 (genotype: MATαhis3-11,15, leu2-3, 112ura3Δ5, can Res pho5, 3::ura3Δ1) by a PEG lithium acetate procedure (Eble, R., 1992, Biotechniques 13:18-20) and selected on uracil dropout medium.
Yeast Growth: Yeast were grown at 30° C. under conditions of constant selection for uracil auxotrophy. YNB (Bio101, Vista, Calif.) supplemented with CSM (uracil dropout) and 2% glucose was used to grow strains having pVT101 constructs. Cycloheximide (Sigma Chemical, St. Louis, Mo.) was added to liquid media or spread on solid media to achieve a final concentration of 500 ng/ml. Nigericin (Sigma Chemical, St. Louis, Mo.) was added to liquid media or spread on solid media to achieve a final concentration of 25 μg/ml. Yeast strains used in cycloheximide selection assays were always propagated in the presence of the cycloheximide on plates and then streaked onto new plates containing drug or no drug, such that induced resistance existed in each strain at the time of the start of the assay. For selection assays on plates, single colonies were streaked; for selection in liquid media 0.01 ml of saturated culture was added to fresh media containing the drug. The plates shown in figures were grown for 3-5 days before photographs were taken. Yeast selection assays in liquid media were quantitated by turbidity as measured by absorbance at OD600.

Test [5] deals with Arabidopsis thaliana plants. Type of test: in vivo. Conditions: after 10-20 days. The protocol: Plant Growth: Arabidopsis seeds were sown in a solid germination media containing MS salts (Sigma Chemical, St. Louis, Mo.), 2% sucrose, 0.8% agar, and vitamins (Valvekens, D. et al., 1992, Proc. Natl. Acad. Sci. USA 85:5536-5540). For selection assays, one of the following, or a combination of both, Was added to media (cooled to less than 50° C. before adding) immediately prior to pouring into plates: cycloheximide at a final concentration of 500 ng/ml; α,β-methyleneadenosine 5′-diphosphate at a final concentration of 1 mM. Plant growth was measured by germination percentage after 10-20 days.
All other materials and methods were discussed above in Example 2.

[6] abbreviates: YMR4 ecto-phosphatase deficient mutant (vector alone), nigericin 25 μg/ml.
The mark [7] stands for this setting: YMR4 expressing AtPGP-1, nigericin 25 μg/ml.

Where two headings read alike, the source gives them in different places.

Consider `Nc1ncnc2c1ncn2[C@@H]1O[C@H](COP(=O)(O)OP(=O)(O)OP(=O)(O)O)[C@@H](O)[C@H]1O` [ATP], for which the “growth in high levels of ATP” value in test [1] (cells not previously selected in drug) was “able to grow”; in test [1] (cells previously selected in cycloheximide, not overexpressing AtPGP-1) it was “not able to grow”.

With `CC(C)=CCNc1ncnc2nc[nH]c12` [N6-(2-isopentenyl) adenine], the figures for the “resistance of plants to the drug (germination)” value in test [2] (plants over-expressing AtPGP-1) and in test [2] (plants over-expressing apyrase) were “confer resistance” and “The same result was obtained”, respectively.

As for `Nc1ncnc2c1ncn2[C@@H]1O[C@H](CO)[C@@H](O)[C@H]1O` [adenosine], in test [3], the “effect of addition to the media on resistance to cycloheximide” value is listed as “did not enhance resistance” and the “effect of addition on growth in drug” value was “slightly inhibitory”.

Regarding `C[C@@H]1C[C@@H]([C@H](O)CC2CC(=O)NC(=O)C2)C(=O)[C@@H](C)C1` [cycloheximide], the “effect of AtPGP-1 on growth in the presence of drug” value in test [4] (INVSC1 wild-type yeast with AtPGP-1) is “did not have any effect”. In addition, the “growth in the presence of drug” value in test [4] (INVSC1 wild-type yeast) is “did grow”; in test [4] (setting [6]), “did not grow”; in test [4] (setting [7]), “enabled the yeast mutant to grow”. The results for the “resistance of plants to the drug (germination)” value in test [2] (plants over-expressing AtPGP-1) and in test [2] (plants over-expressing apyrase) were “confer resistance” and “conference of resistance”, respectively. The germination rate in test [5] (AtPGP-1 overexpressing (MDR OE) plants) was 50%; in test [5] (wild-type plants), 2%.

On to `CO[C@@H]1C[C@@H](C[C@H]2CC[C@H](C)[C@H]([C@@H](C)C(=O)O)O2)O[C@]2(O[C@](C)([C@H]3CC[C@@](C)([C@@H]4O[C@@H]([C@H]5O[C@@](O)(CO)[C@H](C)C[C@@H]5C)C[C@@H]4C)O3)C[C@H]2C)[C@@H]1C` [nigericin], for which the “growth in the presence of drug” value is “reduced growth” in test [4] (setting [6]) and “The same result was obtained” in test [4] (setting [7]).

Regarding `Nc1ncnc2c1ncn2[C@@H]1O[C@H](COP(=O)(O)CP(=O)(O)O)[C@@H](O)[C@H]1O` [phosphatase inhibitor, α,β-methyleneadenosine 5′-diphosphate], the germination rate in test [5] (AtPGP-1 overexpressing (MDR OE) plants, cycloheximide 500 ng/ml, phosphatase inhibitor 1 mM) was found to be 83%; in test [5] (wild-type plants, cycloheximide 500 ng/ml, phosphatase inhibitor 1 mM), 90%.

With `O=P(O)(O)O` [phosphate, potassium phosphate], in test [3], the “effect of addition to the media on resistance to cycloheximide” value is given as “did not enhance resistance” and the “effect of addition on growth in drug” value was “slightly inhibitory”.

Values taken from patent publication US6448472B1, “Genetic and epigenetic manipulation of ABC transporters and ectophosphatases for the conference of hormone and herbicide resistance” (Board of Regents, The University of Texas System, priority 1999, dated 2002).
